# Experimental data from patent US7893083B2, “Method of treating genital herpes” (priority 2003, dated 2011).
# Tests used:
# viral rhinitis [1] = tested on: viral rhinitis
# From the text: In each of the tests, an imiquimod salve was used. The formulation was that commonly used to treat warts and sold under the brand name Aldara™. The salve was applied to each naris of the test subject by use of a common cotton swab. Either a 4 mm^3 dab of salve or ½ pack of 5% Aldara™ was placed on the swab head. The swab head was inserted into a naris. The swab was moved around inside the naris to distribute the salve over the mucosal membrane of the naris. Immediately, after application of the Aldara™ to the subject's first naris, a swab was used to apply the Aldara™ to the subject's second naris. Immediately after application to each naris, the salve was massaged into the mucosal membrane of each naris.
# A test sample of six patients was treated for viral rhinitis using imiquimod (5% topical cream Aldara™, manufactured by 3M Corporation, St. Paul, Minn.). The patients were diagnosed with viral rhinitis due to initial symptoms such as congested nasal passages (rhinitis), nasal drip or rhinorrhea, and sneezing. Contents from ½ packet of a standard imiquimod formulation such as, for example, Aldara™ were applied with a cotton swab into both nares by massaging gently but thoroughly. Approximately the contents from ½ packet of 5% Aldara™ was applied thoroughly along the inside surface of both nares. Initial application of Aldara™ to all the six patients occurred within 24 hours after the appearance of first symptoms resembling viral rhinitis, in order to maximize the efficiency of imiquimod in stimulating the immune system when the viral load is presumably smaller. The procedure was repeated every 12 hours for up to 48 hours. The imiquimod packets were refrigerated after opening, and the remaining contents were used for subsequent applications.
# The patients were monitored for changes in the viral rhinitis symptoms.
# viral rhinitis [2] = experiment: Viral rhinitis test subjects, delayed or once-daily Aldara in each nostril (Example 2); format: in vivo, human; settings: applied more than 2 days after the onset of the cold symptoms
# Experimental: The swab head was inserted into a naris.
# Infected Test Subject #1 developed a sore throat with tingling in larynx, pharynx and uvula. 12 hours later, Subject 1 also developed congestion of the nose. One day later, the subject's initial symptoms intensified, and the subject further developed systemic symptoms such as malaise and headache. More than twenty four hours after the initial viral rhinitis symptoms appeared, Aldara™ was applied in each nostril with a Q-tip swab.
# A 4 mm^3 dab of salve was placed on the swab head. The swab head was inserted into a naris. […] The subject was also treated with 2 teaspoons of standard cough suppressant guaifenesin/dextromethorphan (Wal-Tussin). The next day, malaise and headache were more pronounced and Aldara™ was reapplied with Q-tip to each nostril as described above. Also, 2 teaspoons of guaifenesin/dextromethorphan was administered.
# Infected Test Subject #2 developed common cold with rhinorrhea and nose congestion. Aldara™ was applied once to each nostril every day for 3 days.
# HSV-2 [3] = experiment: Remission interval between genital herpes outbreaks after intranasal Aldara regimens (Example 3); format: in vivo, human; settings: after 2 to 4 regimens
# Experimental: The patients were diagnosed with HSV-2 due to typical outbreak symptoms such as lesions. […] Thus, the contents were applied thoroughly along the inside surface of both nares. Initial application of Aldara™ to all the four patients occurred within 12 hours after the appearance of first symptoms resembling an outbreak of genital herpes. The application procedure was repeated every 12 hours up to 48 hours so that a total of four applications was administered to each patient.
# Prior to treatment with Aldara™, the four patients were having herpes outbreaks at fairly regular intervals. Patients 1, 2 and 3 were experiencing outbreaks every 2 to 3 months and Patient 4 was having outbreaks once a month. Each of the four patients then began treatment by undergoing the 48 hour Aldara™ regimen detailed above each time he or she experienced an outbreak. After undergoing 2 to 4 regimens, each patient experienced a prolonged period of remission before the next outbreak.
# IFN-a = IFN-a ELISA of nasal secretions after nasal application of imiquimod in macaques; format: in vivo, Macaca mulatta
# From the text: (§1) The assay was limited to examining nasal secretions following nasal application (both nares) of imiquimod, because it is believed that this is the entry site where an immune response will be first observed. The assay evaluated the appearance of […] IFN-α and TNF-a in Macaca mulatta macaques and compared it with a control group treated with a base cream (without imiquimod) or simply anesthetized for the same time interval as the treated group.
# (§2) The significance of the data is two-fold. First, intranasal administration of imiquimod cream (5%) produced enough IFN-a in a short period of time, so the cream can be applied daily in order to have 5-6 h of good efficacy. Thus, for example, one can begin applying the cream prior to encountering a known viral area such as an airplane. However, the cream has known cytotoxic effects (mediated through the cytokine production), especially if applied for weeks, so extended application would not be recommended. In the assay, TNF-a remained high for at least 6 h. In the treated group of macaques, the cream was washed away with warm water after the experiments. […] The cream needs to be applied to induce maximum concentration of IFN-a, but it may be removed when TNF-a continues to be elevated (after 6 h).
# (§3) The control group (n=3) and the treated group (n=5) were sedated with glycopyrolate 0.01 mg/kg+acetaminophen 0.2 mg/kg and anesthetized with zolazepam (Telazol) 10 mg/kg intramuscular. […] Physical examination after each sample and at 6 h, 12 h, and 24 h post anesthesia consisted of examining each macaque for fever, erythema, erosion, flaking, and lacrimation.
# (§4) IFN-a and TNF-a enzyme-linked immunoabsorbent assays (ELISA). Levels of IFN-a and TNF-a were measured using commercially available multispecies kit (PBL Biomedical Laboratories) (product #41105-1). The range of detection was 10-500 pg/ml (high sensitivity protocol).
# TNF-a = TNF-a ELISA of nasal secretions after nasal application of imiquimod in macaques; format: in vivo, Macaca mulatta
# From the text: as §1, §2, §3, §4
# HSV-2 [4] = settings: 235 human patients; topical application to herpes lesions; cited from earlier work
# TLR7 = molecular target: T1, TLR7 (Homo sapiens, UniProt Q9NYK1); settings: cited from earlier work
# T1 sequence (Q9NYK1 27-1049): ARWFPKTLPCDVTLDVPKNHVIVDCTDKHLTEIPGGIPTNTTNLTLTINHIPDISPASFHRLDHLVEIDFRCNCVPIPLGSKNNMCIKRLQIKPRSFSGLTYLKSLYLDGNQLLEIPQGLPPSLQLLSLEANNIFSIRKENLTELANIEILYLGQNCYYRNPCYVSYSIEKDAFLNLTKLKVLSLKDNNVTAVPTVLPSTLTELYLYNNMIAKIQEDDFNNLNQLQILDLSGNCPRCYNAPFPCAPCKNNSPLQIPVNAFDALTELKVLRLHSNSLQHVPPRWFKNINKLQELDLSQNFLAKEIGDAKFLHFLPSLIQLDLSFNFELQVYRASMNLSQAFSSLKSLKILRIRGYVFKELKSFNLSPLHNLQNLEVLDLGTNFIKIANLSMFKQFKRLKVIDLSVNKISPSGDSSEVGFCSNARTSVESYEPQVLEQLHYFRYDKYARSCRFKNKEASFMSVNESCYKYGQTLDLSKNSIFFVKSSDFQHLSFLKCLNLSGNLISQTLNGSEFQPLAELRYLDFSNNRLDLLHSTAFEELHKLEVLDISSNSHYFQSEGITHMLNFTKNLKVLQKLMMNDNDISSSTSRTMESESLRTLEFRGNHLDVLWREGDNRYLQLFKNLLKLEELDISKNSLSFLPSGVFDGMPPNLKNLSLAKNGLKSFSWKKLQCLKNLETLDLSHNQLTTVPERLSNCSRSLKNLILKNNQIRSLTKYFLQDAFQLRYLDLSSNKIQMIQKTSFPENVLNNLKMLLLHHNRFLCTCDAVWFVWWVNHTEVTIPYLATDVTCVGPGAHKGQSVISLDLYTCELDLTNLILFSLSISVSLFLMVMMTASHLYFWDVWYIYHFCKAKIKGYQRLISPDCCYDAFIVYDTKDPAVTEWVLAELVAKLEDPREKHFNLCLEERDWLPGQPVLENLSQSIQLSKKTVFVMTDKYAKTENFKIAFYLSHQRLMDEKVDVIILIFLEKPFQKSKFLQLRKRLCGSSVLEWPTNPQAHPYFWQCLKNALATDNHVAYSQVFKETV
# [5] = tested on: purified plasmacytoid dendritic cells; settings: cited from earlier work
# IFN-a mRNA = IFN-a mRNA in postnasal swabs by quantitative competitive RT-PCR in macaques
# [6] = Physical examination of macaques for adverse or cytotoxic effects after nasal Aldara
# [7] = nasal secretions, p<0.0001 versus control group
smiles,measurement,setting,value
CC(C)Cn1cnc2c(N)nc3ccccc3c21 [imiquimod],Effect of accidental inhalation of imiquimod,viral rhinitis [1]; one patient inhaled imiquimod,severe flu-like symptoms that spontaneously subsided within 24 hours
same,Aggravation of ulcerative colitis during treatment,viral rhinitis [1]; one patient with ulcerative colitis,did not suffer any further aggravation
same,"Complete disappearance of symptoms (nasal congestion, sore throat, headache; malaise), time of treatment","viral rhinitis [1]; six patients, untreated viral rhinitis about a week or 10 days",≤ 48 h
same,Side effects reported by patients,viral rhinitis [1]; throughout the course of treatment,No untoward side effects
same,Effectiveness of the treatment with late application,viral rhinitis [2],decreased markedly
same,Post-Treatment Remission Interval (Approximate),"HSV-2 [3]; Patient 1, pre-treatment interval 2-3 months",~3.5 years
same,Post-Treatment Remission Interval (Approximate),"HSV-2 [3]; Patient 2, pre-treatment interval 2-3 months",~6 months
same,Post-Treatment Remission Interval (Approximate),"HSV-2 [3]; Patient 3, pre-treatment interval 2-3 months",~10 months
same,Post-Treatment Remission Interval (Approximate),"HSV-2 [3]; Patient 4, pre-treatment interval 1 month",~2 months
same,IFN-a level relative to basal level,IFN-a; 3 h post treatment,5 times basal level
same,IFN-a level,IFN-a; 4 h post treatment,near maximal level
same,IFN-a level,IFN-a; 6 h post treatment,near basal level
same,"IFN-a increase over time (ELISA, FIG. 6A)",IFN-a; [7],630 ng/mg protein
same,Time of rapid induction of IFN-a post treatment,IFN-a; single nasal application,1 to 5 h
same,TNF-a level relative to the controls,TNF-a; 6 h post nasal treatment,3 times
same,TNF-a level,TNF-a; 6 h post treatment,remaining high
same,"TNF-a increase over time (ELISA, FIG. 6B)",TNF-a; [7],540 ng/mg protein
same,Time of TNF-a peak,TNF-a; post treatment,4 h
same,"Outbreak recurrence times, imiquimod versus placebo",HSV-2 [4],no statistically significant difference
same,Activity at TLR7,TLR7,TLR7 agonists
same,IFN-a induction,[5],induce IFN-a
same,"IFN-a level in treated animals, mean","IFN-a mRNA; samples taken 3-5 h after application, p=0.004 versus controls",2.3 IFN-a/albumin mRNA×10^3
same,"IFN-a level in treated animals, range","IFN-a mRNA; samples taken 3-5 h after application, related to albumin mRNA",0.84-5.20 mRNA×10^3
same,Increase of IFN-a messenger RNA levels in nasal secretions compared with untreated macaques,IFN-a mRNA; single nasal application,2-5 fold
same,Adverse reactions to treatment in macaques,[6]; cream used during short period of time,No adverse reactions
same,Cytotoxic effects on examination,"[6]; examined at 6 h, 12 h, or 24 h, cream washed away after the experiments","No animal had cytotoxic effects when examined at 6 h, 12 h, or 24 h, except one animal, which had an episode of lacrimation for 12 h post treatment"
